The target in assay [1] is T1, Toll-like receptor 9 (Mus musculus, UniProt Q9EQU3).
T1 sequence (Q9EQU3 whole entry): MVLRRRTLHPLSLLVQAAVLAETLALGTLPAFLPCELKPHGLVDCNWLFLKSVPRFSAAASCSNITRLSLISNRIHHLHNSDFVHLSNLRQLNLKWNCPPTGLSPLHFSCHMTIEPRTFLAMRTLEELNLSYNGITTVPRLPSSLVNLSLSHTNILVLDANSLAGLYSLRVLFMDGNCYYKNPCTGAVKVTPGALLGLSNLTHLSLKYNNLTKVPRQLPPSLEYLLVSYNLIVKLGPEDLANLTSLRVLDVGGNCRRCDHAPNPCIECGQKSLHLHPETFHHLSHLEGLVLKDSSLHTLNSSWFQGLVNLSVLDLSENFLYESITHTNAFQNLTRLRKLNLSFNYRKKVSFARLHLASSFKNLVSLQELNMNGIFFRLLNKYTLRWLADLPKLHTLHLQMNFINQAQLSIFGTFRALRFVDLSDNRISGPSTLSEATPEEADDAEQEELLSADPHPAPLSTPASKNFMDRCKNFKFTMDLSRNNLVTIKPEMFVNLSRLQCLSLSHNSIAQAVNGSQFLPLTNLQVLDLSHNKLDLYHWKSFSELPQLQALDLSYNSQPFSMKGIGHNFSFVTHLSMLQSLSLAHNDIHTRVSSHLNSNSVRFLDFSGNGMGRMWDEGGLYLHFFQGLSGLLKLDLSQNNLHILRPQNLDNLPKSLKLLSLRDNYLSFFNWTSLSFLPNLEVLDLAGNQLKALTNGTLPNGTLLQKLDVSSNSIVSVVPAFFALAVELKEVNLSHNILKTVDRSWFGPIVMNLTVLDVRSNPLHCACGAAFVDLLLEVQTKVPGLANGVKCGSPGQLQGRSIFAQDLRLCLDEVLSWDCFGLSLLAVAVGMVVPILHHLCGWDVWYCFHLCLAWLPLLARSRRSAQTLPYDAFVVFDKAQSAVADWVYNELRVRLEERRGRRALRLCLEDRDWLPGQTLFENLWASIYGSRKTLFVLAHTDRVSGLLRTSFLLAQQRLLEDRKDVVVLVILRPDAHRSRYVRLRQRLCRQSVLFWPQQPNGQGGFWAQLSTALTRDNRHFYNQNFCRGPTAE
The experiment in a line: Antagonist activity at TLR9 in mouse whole blood cells assessed as inhibition of ODN-2216 induced IL-6 production by ELISA. In kind it is cell-based. (In general: In an ELISA, binding on a coated surface is turned into a signal by an enzyme label.)

Assay [2] has as its target T2, Toll-like receptor 7 (Mus musculus, UniProt P58681).
T2 sequence (P58681 whole entry): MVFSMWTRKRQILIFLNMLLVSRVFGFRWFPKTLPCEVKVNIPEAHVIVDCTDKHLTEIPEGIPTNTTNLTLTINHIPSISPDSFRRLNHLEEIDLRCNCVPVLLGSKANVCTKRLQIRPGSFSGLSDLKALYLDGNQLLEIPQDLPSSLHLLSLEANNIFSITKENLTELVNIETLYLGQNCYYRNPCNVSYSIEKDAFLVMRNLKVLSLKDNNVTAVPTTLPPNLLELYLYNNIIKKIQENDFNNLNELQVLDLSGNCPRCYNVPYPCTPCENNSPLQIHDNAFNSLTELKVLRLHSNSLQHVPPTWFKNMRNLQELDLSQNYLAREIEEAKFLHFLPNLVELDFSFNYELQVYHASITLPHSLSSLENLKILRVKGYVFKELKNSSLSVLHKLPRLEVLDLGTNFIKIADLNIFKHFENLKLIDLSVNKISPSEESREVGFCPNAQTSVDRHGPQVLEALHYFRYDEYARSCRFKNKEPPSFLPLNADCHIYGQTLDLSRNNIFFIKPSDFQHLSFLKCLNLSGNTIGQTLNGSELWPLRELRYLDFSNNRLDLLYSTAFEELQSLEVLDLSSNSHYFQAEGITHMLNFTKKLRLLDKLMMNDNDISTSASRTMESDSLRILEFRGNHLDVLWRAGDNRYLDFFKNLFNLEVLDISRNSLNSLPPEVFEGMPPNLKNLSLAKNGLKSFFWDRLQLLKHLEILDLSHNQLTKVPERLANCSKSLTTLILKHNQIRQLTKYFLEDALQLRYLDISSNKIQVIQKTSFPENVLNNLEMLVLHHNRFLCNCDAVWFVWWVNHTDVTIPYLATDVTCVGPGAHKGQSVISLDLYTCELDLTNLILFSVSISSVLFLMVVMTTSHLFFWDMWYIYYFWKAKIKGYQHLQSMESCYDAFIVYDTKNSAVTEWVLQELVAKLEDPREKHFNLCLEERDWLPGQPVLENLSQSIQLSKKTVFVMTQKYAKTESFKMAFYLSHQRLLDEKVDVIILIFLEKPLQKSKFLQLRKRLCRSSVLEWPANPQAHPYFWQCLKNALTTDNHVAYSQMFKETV
The assay can be described thus: Antagonist activity at TLR7 in mouse whole blood cells assessed as inhibition of gardiquimod induced IL-6 production by ELISA. The assay is classed as cell-based.

For assay [3], the target named is T2, Toll-like receptor 7. The experiment in a line: In vivo antagonist activity at TLR7 in po dosed C57BL/6 mouse assessed as reduction of gardiquimod-induced IL-6 production pretreated for 30 mins followed by gardiquimod-stimulation and measured after 120 mins by ELISA.

Each structure is given as a SMILES string.

What is called IC50 is the point on the concentration scale where inhibition reaches its midpoint. A word on the EC50: it is the concentration that produces a half-maximal response. Regarding `CNCCN1CCC(c2ccc3[nH]c(-c4ccc(OC)c(OC)c4)c(C(C)C)c3c2)CC1`, the IC50 in assay [1] was determined as 510 nM; in assay [2], 43 nM. Moreover, in assay [3], the half-maximal effective concentration (EC50) is 2.4 nM.

These data come from ChEMBL document CHEMBL4619828, “Discovery of Potent and Orally Bioavailable Small Molecule Antagonists of Toll-like Receptors 7/8/9 (TLR7/8/9)” (ACS Med Chem Lett, 2020).
